In US8008346B2, “Chemotherapeutic agents for inhibition of protein translation” (The Royal University for the Advancement of Learning/McGill …, priority 2006, dated 2011):

Experiments:
[1] = system: in vitro splicing reactions; assay: In vitro splicing of AdML pre-mRNA in nuclear extracts; format: biochemical; details: 2 μM, 10 μM and 50 μM
Description: FIG. 8. Selective inhibition of eIF4A activity by hippuristanol. A. Hippuristanol inhibits eIF4AIf-mediated helicase activity. Unwinding reactions were performed with RNA-1/RNA-11 duplex and recombinant eIF4AIf or Ded1p. The presence of 50 μM hippuristanol in the reaction is indicated above the panel. […] Double-stranded RNA duplex and single-stranded RNA molecules are schematically represented to the left of the panel. […] In vitro splicing reactions were performed with the AdML pre-mRNAs as previously described (48). AdML pre-mRNA was incubated with nuclear extracts in the presence of increasing amounts of hippuristanol (2 μM [lane4], 10 μM [lane 5] and 50 μM [lane 6]). Reaction products were resolved on 15% polyacrylamide/8M urea gels and subjected to autoradiography. The position of migration of the pre-mRNA and spliced product is denoted to the right. C. Rescue of hippuristanol-induced inhibition with recombinant eIF4AIf. […] A graphical representation from three experiments is provided below. Translational efficiency was calculated relative to luciferase values obtained from control translations containing vehicle (0.5% DMSO).

eIF4AIf = target: T1, eIF4AIf (Mus musculus, UniProt P60843); assay: RNA-dependent ATPase assay with recombinant eIF4AIf; format: biochemical, murine; details: 2.5 μM poly (U); relative to vehicle (0.5% DMSO)
T1 construct: inferred only from the Ni-NTA purification; made in house; host or cells: Escherichia coli BL21 (DE3) codon+
Description: (§1) FIG. 7. Effects of hippuristanol on ATP hydrolysis, ATP binding, and RNA binding activities of eIF4A. A. Hippuristanol inhibits eIF4AIf RNA-dependent ATPase activity. The rate of ATP hydrolysis as a function of hippuristanol concentration is plotted relative to the rate obtained in the presence of vehicle (0.5% DMSO). ATP hydrolysis was measured in the presence of 2.5 μM poly (U) and monitored by thin layer chromatography. […] Samples were resolved by SDS-PAGE and subjected to autoradiography. C. The RNA binding activity of eIF4AIf is inhibited by hippuristanol. Oxidized ^32P-cap labeled CAT mRNA was incubated with recombinant eIF4AIf in the absence (lane 2) or presence of ATP (lanes 1, 3-6), 0.6 mM m^7GDP (lane 3), 0.6 mM GDP (lane 4), or 50 μM hippuristanol (lane 6). Following treatment with RNase A, samples were resolved by SDS-PAGE and subjected to autoradiography. The asterisk denotes the position of migration of a ˜30 kDa contaminant in the recombinant eIF4AIf preparation used as an internal loading reference. D. The RNA binding activity of eIF4Ac is inhibited by hippuristanol. Oxidized ^32P-cap labeled CAT mRNA was incubated with 0.7 μg of native eIF4F in the absence (lane 1) or presence (lane 2) of 50 μM hippuristanol. […]
(§2) Recombinant eIF4AI Purification and Assays. […] Quantifications were performed on a Fujix BAS2000 phosphoimager with a Fuji imaging screen. […]

eIF4Ac = eIF4Ac (Homo sapiens, UniProt P60842); assay: UV crosslinking of alpha-32P-ATP to native eIF4F; format: binding; details: 50 μM
Description: as §1, §2

T1 sequence (P60843 whole entry): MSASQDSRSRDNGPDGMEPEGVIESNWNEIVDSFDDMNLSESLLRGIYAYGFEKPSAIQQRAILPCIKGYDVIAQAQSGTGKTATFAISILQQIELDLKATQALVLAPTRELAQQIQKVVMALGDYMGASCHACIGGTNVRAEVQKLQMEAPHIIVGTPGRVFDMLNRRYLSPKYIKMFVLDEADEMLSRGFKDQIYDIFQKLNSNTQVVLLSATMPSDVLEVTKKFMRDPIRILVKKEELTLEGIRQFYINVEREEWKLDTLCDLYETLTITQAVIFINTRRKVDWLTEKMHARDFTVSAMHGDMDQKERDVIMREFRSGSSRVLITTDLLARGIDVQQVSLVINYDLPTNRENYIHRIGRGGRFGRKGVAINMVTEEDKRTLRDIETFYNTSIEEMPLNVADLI
eIF4Ac, sequence (P60842 whole entry): as the sequence (P60843 whole entry) above
eIF4Ac, sequence (P06730 whole entry partner): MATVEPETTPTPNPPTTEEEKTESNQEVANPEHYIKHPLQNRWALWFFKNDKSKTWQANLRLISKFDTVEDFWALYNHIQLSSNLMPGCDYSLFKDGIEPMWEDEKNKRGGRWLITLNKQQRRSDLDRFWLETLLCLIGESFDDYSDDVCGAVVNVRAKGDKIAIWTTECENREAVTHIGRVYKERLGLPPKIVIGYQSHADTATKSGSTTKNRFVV
eIF4Ac, sequence (Q04637 whole entry partner): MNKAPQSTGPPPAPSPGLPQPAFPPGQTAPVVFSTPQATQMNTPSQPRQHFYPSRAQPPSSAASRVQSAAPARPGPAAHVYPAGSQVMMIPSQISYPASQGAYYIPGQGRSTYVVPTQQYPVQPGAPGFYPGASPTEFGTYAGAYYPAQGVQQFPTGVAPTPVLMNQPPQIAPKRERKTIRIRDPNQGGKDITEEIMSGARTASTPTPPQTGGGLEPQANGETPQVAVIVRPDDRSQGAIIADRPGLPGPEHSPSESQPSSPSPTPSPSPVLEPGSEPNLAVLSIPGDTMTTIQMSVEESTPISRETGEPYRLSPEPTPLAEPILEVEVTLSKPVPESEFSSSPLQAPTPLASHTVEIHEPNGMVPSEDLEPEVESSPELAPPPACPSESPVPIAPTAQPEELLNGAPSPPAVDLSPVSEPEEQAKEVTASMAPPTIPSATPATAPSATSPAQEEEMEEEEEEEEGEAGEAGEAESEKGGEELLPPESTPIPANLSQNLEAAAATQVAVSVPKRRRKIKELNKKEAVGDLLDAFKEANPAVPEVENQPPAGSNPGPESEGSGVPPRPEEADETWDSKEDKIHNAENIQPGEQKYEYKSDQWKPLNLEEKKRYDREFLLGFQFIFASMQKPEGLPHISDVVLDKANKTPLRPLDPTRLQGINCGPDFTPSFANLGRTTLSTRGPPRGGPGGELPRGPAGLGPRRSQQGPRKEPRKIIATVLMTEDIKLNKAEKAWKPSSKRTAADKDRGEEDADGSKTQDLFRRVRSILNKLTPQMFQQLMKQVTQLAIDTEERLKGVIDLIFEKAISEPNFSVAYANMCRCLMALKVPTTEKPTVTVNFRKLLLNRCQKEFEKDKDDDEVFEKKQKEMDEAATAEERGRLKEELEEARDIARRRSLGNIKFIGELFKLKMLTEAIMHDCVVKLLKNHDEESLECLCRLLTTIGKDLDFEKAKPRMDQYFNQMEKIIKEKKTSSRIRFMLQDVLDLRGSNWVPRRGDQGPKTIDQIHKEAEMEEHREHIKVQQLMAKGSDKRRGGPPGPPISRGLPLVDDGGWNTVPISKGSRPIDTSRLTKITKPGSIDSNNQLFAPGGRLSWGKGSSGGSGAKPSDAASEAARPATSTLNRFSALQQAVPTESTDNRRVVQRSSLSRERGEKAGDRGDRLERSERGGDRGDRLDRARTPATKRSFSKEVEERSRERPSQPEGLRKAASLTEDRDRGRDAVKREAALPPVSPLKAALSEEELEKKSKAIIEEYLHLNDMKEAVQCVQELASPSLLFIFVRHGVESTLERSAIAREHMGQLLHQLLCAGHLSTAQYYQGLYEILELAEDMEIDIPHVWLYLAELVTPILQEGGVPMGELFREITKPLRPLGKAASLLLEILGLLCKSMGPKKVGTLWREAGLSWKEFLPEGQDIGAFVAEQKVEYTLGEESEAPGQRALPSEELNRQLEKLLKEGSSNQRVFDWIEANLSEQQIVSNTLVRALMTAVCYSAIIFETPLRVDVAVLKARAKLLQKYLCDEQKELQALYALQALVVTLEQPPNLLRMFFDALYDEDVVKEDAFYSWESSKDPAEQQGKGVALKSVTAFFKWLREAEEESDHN

Structure (SMILES): C[C@H]1C[C@@]2(O[C@H]3C[C@H]4[C@@H]5CC[C@H]6C[C@H](O)CC[C@]6(C)[C@H]5[C@@H](O)C[C@]4(C)[C@H]3[C@@]2(C)O)OC1(C)C [Hippuristanol, hippuristanol]
- in vitro splicing reactions [1]: does not inhibit
- eIF4AIf RNA-dependent ATPase activity (eIF4AIf): inhibits
- ATP crosslinking to eIF4Ac (eIF4Ac): does not affect
